Measurements reported in patent EP4635500A1, “THERAPEUTIC AGENT FOR BACTERIAL INFECTION” (Sumitomo Pharma Co., Ltd., priority 2022, dated 2024).
≈ marks a conversion by molar mass, not a printed value. Where “and” joins values, the source holds several entries; their conditions need not be identical. Equal entries are not always repeated. Where two headings read alike, the source gives them in different places.

What was measured:
Type in all cases: cell-based
Providencia rettgeri = test: MIC, broth microdilution, standard strains and Japanese clinical isolates (Example 5, Table 4); details: ATCCBAA2525; KUB4010 Providencia rettgeri ATCC BAA-2525, OXA-181
Escherichia coli = test: as above
Klebsiella pneumoniae = test: as above
Enterobacterales = test: MIC, broth microdilution, CDC/FDA Antibiotic Resistance Isolate Bank (Example 7, Tables 8, 11, 12)

## C[C@@H](O)[C@H]1C(=O)N2C(C(=O)O)=C(S[C@@H]3CN[C@H](C(=O)N(C)C)C3)[C@H](C)[C@H]12 [MEPM, meropenem]
Providencia rettgeri
  MIC: 2 µg/mL (≈ 5.22 µM)
Escherichia coli; ATCCBAA2340, KUB3148 Escherichia coli ATCC BAA-2340, KPC-3
  MIC: 0.5 µg/mL (≈ 1.3 µM)
Escherichia coli; ATCCBAA2452, KUB4005 Escherichia coli ATCC BAA-2452, NDM-1
  MIC: 1 µg/mL (≈ 2.61 µM)
Escherichia coli; ATCCBAA2469, KUB3149 Escherichia coli ATCC BAA-2469, NDM-1
  MIC: 2 µg/mL (≈ 5.22 µM)
Escherichia coli; ATCCBAA2471, KUB4007 Escherichia coli ATCC BAA-2471, NDM-6
  MIC: 32 µg/mL (≈ 83.4 µM)
Escherichia coli; ATCCBAA2523, KUB3150 Escherichia coli ATCC BAA-2523, OXA-48
  MIC: 0.06 µg/mL (≈ 0.156 µM)
Escherichia coli; KUB3151 Escherichia coli NCTC13476, IMP-1
  MIC: 1 µg/mL (≈ 2.61 µM)
Escherichia coli; KUB3605 Escherichia coli Clinical isolate, NDM-1
  MIC: 32 µg/mL (≈ 83.4 µM)
Klebsiella pneumoniae; ATCCBAA1705, KUB3152 Klebsiella pneumoniae ATCC BAA-1705, KPC-2
  MIC: 4 µg/mL (≈ 10.4 µM)
Klebsiella pneumoniae; ATCCBAA1898, KUB3996 Klebsiella pneumoniae ATCC BAA-1898, KPC-2
  MIC: 32 µg/mL (≈ 83.4 µM)
Klebsiella pneumoniae; ATCCBAA1899, KUB3997 Klebsiella pneumoniae ATCC BAA-1899, KPC-2
  MIC: 8 µg/mL (≈ 20.9 µM)
Klebsiella pneumoniae; ATCCBAA1900, KUB3998 Klebsiella pneumoniae ATCC BAA-1900, KPC-3
  MIC: 8 µg/mL (≈ 20.9 µM)
Klebsiella pneumoniae; ATCCBAA1902, KUB3153 Klebsiella pneumoniae ATCC BAA-1902, KPC-3
  MIC: 64 µg/mL (≈ 167 µM)
Klebsiella pneumoniae; ATCCBAA1903, KUB3154 Klebsiella pneumoniae ATCC BAA-1903, KPC-2
  MIC: 4 µg/mL (≈ 10.4 µM)
Klebsiella pneumoniae; ATCCBAA1904, KUB3999 Klebsiella pneumoniae ATCC BAA-1904, KPC-3
  MIC: 2 µg/mL (≈ 5.22 µM)
Klebsiella pneumoniae; ATCCBAA1905, KUB3155 Klebsiella pneumoniae ATCC BAA-1905, KPC-2
  MIC: 8 µg/mL (≈ 20.9 µM)
Klebsiella pneumoniae; ATCCBAA2078, KUB4000 Klebsiella pneumoniae ATCC BAA-2078, KPC-3
  MIC: 4 µg/mL (≈ 10.4 µM)
Klebsiella pneumoniae; ATCCBAA2146, KUB4011 Klebsiella pneumoniae ATCC BAA-2146, NDM-1
  MIC: 64 µg/mL (≈ 167 µM)
Klebsiella pneumoniae; ATCCBAA2342, KUB4003 Klebsiella pneumoniae ATCC BAA-2342, KPC-3
  MIC: 4 µg/mL (≈ 10.4 µM)
Klebsiella pneumoniae; ATCCBAA2343, KUB4004 Klebsiella pneumoniae ATCC BAA-2343, KPC-3
  MIC: 16 µg/mL (≈ 41.7 µM)
Klebsiella pneumoniae; ATCCBAA2344, KUB3156 Klebsiella pneumoniae ATCC BAA-2344, KPC-2
  MIC: 4 µg/mL (≈ 10.4 µM)
Klebsiella pneumoniae; ATCCBAA2470, KUB3157 Klebsiella pneumoniae subsp. pneumoniae ATCC BAA-2470, NDM-1
  MIC: 16 µg/mL (≈ 41.7 µM)
Klebsiella pneumoniae; ATCCBAA2473, KUB4009 Klebsiella pneumoniae ATCC BAA-2473, NDM-1
  MIC: 64 µg/mL (≈ 167 µM)
Klebsiella pneumoniae; ATCCBAA2524, KUB3158 Klebsiella pneumoniae subsp. pneumoniae ATCC BAA-2524, OXA-48
  MIC: 0.25 µg/mL (≈ 0.652 µM)
Klebsiella pneumoniae; KUB3163 Klebsiella pneumoniae Clinical isolate, IMP-1
  MIC: 0.5 µg/mL (≈ 1.3 µM)
Klebsiella pneumoniae; KUB3164 Klebsiella pneumoniae Clinical isolate, IMP-6
  MIC: 2 µg/mL (≈ 5.22 µM)
Klebsiella pneumoniae; KUB3166 Klebsiella pneumoniae Clinical isolate, IMP-1
  MIC: 0.5 µg/mL (≈ 1.3 µM)
Klebsiella pneumoniae; KUB3606 Klebsiella pneumoniae Clinical isolate, KPC-38
  MIC: 256 µg/mL (≈ 668 µM)
Klebsiella pneumoniae; KUB3607 Klebsiella pneumoniae Clinical isolate, IMP-1
  MIC: 0.5 µg/mL (≈ 1.3 µM)
Klebsiella pneumoniae; KUB3628 Klebsiella pneumoniae Clinical isolate, IMP-1
  MIC: 8 µg/mL (≈ 20.9 µM)
Klebsiella pneumoniae; KUB3630 Klebsiella pneumoniae Clinical isolate, IMP-1
  MIC: 1 µg/mL (≈ 2.61 µM)
Klebsiella pneumoniae; KUB3631 Klebsiella pneumoniae Clinical isolate, IMP-1
  MIC: 4 µg/mL (≈ 10.4 µM)
Klebsiella pneumoniae; KUB3633 Klebsiella pneumoniae Clinical isolate, IMP-6
  MIC: 1 µg/mL (≈ 2.61 µM)
Klebsiella pneumoniae; KUB3634 Klebsiella pneumoniae Clinical isolate, IMP-6
  MIC: 1 µg/mL (≈ 2.61 µM)
Klebsiella pneumoniae; KUB3635 Klebsiella pneumoniae Clinical isolate, IMP-1
  MIC: 32 µg/mL (≈ 83.4 µM)
Klebsiella pneumoniae; NCTC13439, KUB3159 Klebsiella pneumoniae NCTC13439, VIM-1
  MIC: 0.5 µg/mL (≈ 1.3 µM)
Klebsiella pneumoniae; NCTC13440, KUB3160 Klebsiella pneumoniae NCTC13440, VIM-1
  MIC: 0.5 µg/mL (≈ 1.3 µM)
Enterobacterales
  MIC90: 32 µg/mL and >32 µg/mL
Enterobacterales; Citrobacter freundii
  MIC: 16 µg/mL (≈ 41.7 µM)
Enterobacterales; Enterobacte (name cut at the end of the table), KUB No. 5629, AR Bank # 132, NMC (cut), read-out: MIC
  MIC: 2 µg/mL (≈ 5.22 µM)
Enterobacterales; Enterobacter cloacae, Enterobacter cloacae complex, KUB No. 5661, AR Bank# 164, NMC-A, read-out: MIC
  MIC: 32 µg/mL (≈ 83.4 µM)
Enterobacterales; Enterobacter cloacae, KUB No. 5529, AR Bank # 32, KPC-3, read-out: MIC
  MIC: 0.12 µg/mL (≈ 0.313 µM)
Enterobacterales; Enterobacter cloacae, KUB No. 5535, AR Bank # 38, NDM-1, read-out: MIC
  MIC: > 32 µg/mL
Enterobacterales; Enterobacter cloacae, KUB No. 5547, AR Bank # 50, KPC-4, read-out: MIC
  MIC: 0.5 µg/mL (≈ 1.3 µM)
Enterobacterales; Enterobacter cloacae, KUB No. 5550, AR Bank # 53, KPC-3, read-out: MIC
  MIC: 2 µg/mL (≈ 5.22 µM)
Enterobacterales; Enterobacter cloacae, KUB No. 5557, AR Bank # 60, no carbapenemase gene, read-out: MIC
  MIC: ≤ 0.06 µg/mL
